Assays:
[1] = single-dose nasal spray tolerability and PK in rabbits; format: in vivo, New Zealand White rabbit; conditions: male rabbits
Method: The potential toxicity and TK of Compound 1 nasal spray was assessed following a single spray (100 μL) of either 2% or 5% Compound 1 in the right nostril of male New Zealand White rabbits (N=36). Phosphate buffered solution (PBS) served as the control and was sprayed (100 μL) in the left nostril. Bioanalytical and histopathological analyses were conducted at 1, 3, 6, 9, and 24 h post-treatment. Prior to sacrifice, the intranasal/nasal area of each animal was assessed using the Draize Classification System for Scoring Skin Irritation.

[2] = Cardiovascular safety, guinea pig iv; format: in vivo; conditions: guinea pig, in vivo; intravenous
[3] = tested on: blood pressure, heart rate, ECG; test: Cardiovascular safety, guinea pig iv; format: in vivo
muscle receptor (α1β1δγ) [4] = target: T1, muscle receptor (α1β1δγ) (Homo sapiens, UniProt P02708+P07510+Q07001); test: Receptor binding muscle receptor, TE-671 membranes
T1 construct: endogenous in cells; host or cells: TE671 (TE-671) cells / membranes (per the earlier reading)

[5] = tested on: cultured human peripheral blood lymphocytes; test: chromosome aberration assay; format: cell-based; conditions: in vitro
Description: Compound 1 was negative for mutagenicity in both in vitro bioassays—including an Ames test, a micronucleus test in mouse lymphoma cells, and a chromosome aberration assay using cultured human peripheral blood lymphocytes—and an in vivo rat bone marrow micronucleus test.

muscle receptor (α1β1δγ) [6] = target: T1, muscle receptor (α1β1δγ); test: Receptor function muscle receptor, TE671 cells; format: cell-based

T1 sequence (P11230 24-501): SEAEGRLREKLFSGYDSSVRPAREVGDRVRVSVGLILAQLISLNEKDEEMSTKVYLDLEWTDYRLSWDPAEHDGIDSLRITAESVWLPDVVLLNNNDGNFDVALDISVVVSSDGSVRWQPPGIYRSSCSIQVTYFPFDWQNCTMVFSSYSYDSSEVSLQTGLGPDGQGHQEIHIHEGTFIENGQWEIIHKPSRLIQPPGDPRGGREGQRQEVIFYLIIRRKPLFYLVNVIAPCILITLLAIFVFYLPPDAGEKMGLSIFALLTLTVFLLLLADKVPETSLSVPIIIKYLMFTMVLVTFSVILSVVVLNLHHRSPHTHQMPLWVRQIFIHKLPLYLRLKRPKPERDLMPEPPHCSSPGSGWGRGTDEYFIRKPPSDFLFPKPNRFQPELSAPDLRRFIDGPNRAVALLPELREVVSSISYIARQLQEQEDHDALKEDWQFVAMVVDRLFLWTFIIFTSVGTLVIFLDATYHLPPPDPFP
T1 sequence (P02708 21-457): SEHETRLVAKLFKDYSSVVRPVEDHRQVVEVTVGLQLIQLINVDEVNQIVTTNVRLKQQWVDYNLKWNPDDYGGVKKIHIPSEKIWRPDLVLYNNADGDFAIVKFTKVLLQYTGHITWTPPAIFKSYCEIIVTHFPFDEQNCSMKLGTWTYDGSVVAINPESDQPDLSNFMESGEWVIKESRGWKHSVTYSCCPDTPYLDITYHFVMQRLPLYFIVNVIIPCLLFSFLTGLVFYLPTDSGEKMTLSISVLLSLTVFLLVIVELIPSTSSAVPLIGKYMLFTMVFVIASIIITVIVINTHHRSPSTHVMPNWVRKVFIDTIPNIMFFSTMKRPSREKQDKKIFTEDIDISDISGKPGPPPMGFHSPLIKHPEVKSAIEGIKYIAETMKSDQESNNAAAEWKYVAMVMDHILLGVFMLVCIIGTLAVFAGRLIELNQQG
T1 sequence (Q07001 22-517): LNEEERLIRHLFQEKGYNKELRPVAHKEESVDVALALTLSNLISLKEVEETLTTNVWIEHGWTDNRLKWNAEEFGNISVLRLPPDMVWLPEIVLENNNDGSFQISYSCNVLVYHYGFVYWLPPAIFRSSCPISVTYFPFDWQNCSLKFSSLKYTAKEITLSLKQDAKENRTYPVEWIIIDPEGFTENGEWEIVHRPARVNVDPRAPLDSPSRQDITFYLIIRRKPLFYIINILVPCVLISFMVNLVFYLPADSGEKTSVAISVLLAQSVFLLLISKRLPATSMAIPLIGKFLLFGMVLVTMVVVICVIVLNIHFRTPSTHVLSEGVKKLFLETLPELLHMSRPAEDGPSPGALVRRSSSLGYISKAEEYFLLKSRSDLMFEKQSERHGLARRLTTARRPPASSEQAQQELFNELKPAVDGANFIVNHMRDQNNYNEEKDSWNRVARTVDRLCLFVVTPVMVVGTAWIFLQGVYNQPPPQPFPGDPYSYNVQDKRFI
T1 sequence (P07510 23-517): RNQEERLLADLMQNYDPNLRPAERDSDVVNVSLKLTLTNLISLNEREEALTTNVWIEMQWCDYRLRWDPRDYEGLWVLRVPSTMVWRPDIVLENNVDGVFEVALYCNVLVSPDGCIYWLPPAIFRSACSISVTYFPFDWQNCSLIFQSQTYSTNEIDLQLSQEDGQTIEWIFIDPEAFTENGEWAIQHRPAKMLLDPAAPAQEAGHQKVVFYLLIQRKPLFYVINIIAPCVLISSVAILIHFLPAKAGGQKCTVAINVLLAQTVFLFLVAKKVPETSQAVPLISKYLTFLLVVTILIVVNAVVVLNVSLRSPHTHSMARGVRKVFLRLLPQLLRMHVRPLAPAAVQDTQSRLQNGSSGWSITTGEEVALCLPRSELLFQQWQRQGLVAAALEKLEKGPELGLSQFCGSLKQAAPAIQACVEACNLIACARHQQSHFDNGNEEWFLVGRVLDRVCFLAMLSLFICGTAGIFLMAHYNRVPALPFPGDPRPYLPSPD

C(=C\[C@H]1CCNC1)/c1cncnc1 [Compound 1, (R)-5-((E)-2-pyrrolidin-3-ylvinyl)pyrimidine]
intranasal/nasal assessment (Draize) ([1]; single 100 μL spray of 2% or 5%): no signs of erythema, edema, eschar formation or discharge | clinical signs ([1]; single 100 μL spray of 2% or 5% in right nostril): No clinical signs were observed | histopathology of the nasal cavity ([1]; single 100 μL spray of 2% or 5%, 1 to 24 h post-treatment): no macroscopic or microscopic findings | MTD [2]: 0.3 mg/kg | effects on QTc ([3]; 1 mg/kg iv): doses up to 0.3 mg/kg, mild and reversible | lethality ([3]; 10 mg/kg iv): 10 mg/kg was lethal. | peak increase in heart rate ([3]; 1, 3, and 10 mg/kg iv): rate was 41 beats per minute. | peak increase in systolic blood pressure ([3]; 1, 3, and 10 mg/kg iv): 58 mmHg; and the peak increase in heart | time in which effects resolved ([3]; 1 and 3 mg/kg iv): 3 min | effects on QTc/ECG ([3]; 3 and 10 mg/kg iv): effects on QTc at 1 mg/kg, and severe | effects on ECGs ([3]; doses up to 0.3 mg/kg iv): Compound 1 caused no effects on ECGs at | Ki (muscle receptor (α1β1δγ) [4]): 36 µM | mutagenicity, chromosome aberration assay [5]: negative | EC50 (muscle receptor (α1β1δγ) [6]): 15 µM | Emax (muscle receptor (α1β1δγ) [6]; TE-671, Human muscle-type, Ca++ Flux): 42% | Emax (muscle receptor (α1β1δγ) [6]; TE-671, Human muscle-type, Rb+ Flux, single point): 12% | Emax (muscle receptor (α1β1δγ) [6]; TE-671, TE671 cells): 42%

Source: patent US10709707B2, “Methods of treating ocular conditions” (Oyster Point Pharma, Inc., priority 2016, dated 2020)
